According to patent US20230123863A1, “A GLIA CELL AND NEURON CO-CULTURE SYSTEM AND METHOD” (National Yang-Ming University, priority 2020, published 2023):

Tests used:
[1] = tested on: dorsal hippocampus of male SD adult rats; assay: kainic acid i.c.v. injection-induced hippocampal damage, NeuN, MAP2 and GLT-1 immunostaining; format: in vivo, rat
Protocol: To validate the in vitro results, the effect of sEH inhibition on neuronal loss in the hippocampus after excitotoxic insult was investigated in vivo. First examined was the effect of CNS administration of AUDA on kainic acid (KA), an epileptic seizure-inducing substance, i.c.v. injection-induced hippocampal damage in male SD adult rats. The extent of neuronal damage in the dorsal hippocampus was examined 24 h after the KA injection by immunostaining with NeuN and MAP2 for neuronal nuclei and dendrites, respectively.
Eight-week-old male SD rats were subjected to unilateral i.c.v. injection of saline, KA, or KA with the sEH inhibitor AUDA. Rat brains were harvested 24 h after the injection for immunohistochemistry.
NeuN^+ cells of each hippocampal subregion were determined by counting the number of NeuN^+/DAPI^+ cells and then normalized with respective saline treatment group. MAP2 area was determined by the percentage of the immunoreactive area in each hippocampal region of interest and then normalized with the respective saline treatment group. […] Scale bar=100 μm. When compared with FIGS. 20-23, it can be seen that the results of in vivo trials were more similar to those of the GN culture than the NE culture.
FIG. 27 is a quantitative analysis of images in FIG. 25. GLT-1 area was determined by the percentage of the immunoreactive area in each hippocampal region of interest and then normalized with the respective saline treatment group. Note that GLT-1 immunoreactivity was depleted in the stratum pyramidale (SP) and stratum lucidum (SL) layers of CA3 in the KA treatment group, and the effect was attenuated by the AUDA pretreatment.

[2] = tested on: Primary rat cortical GN mix cultures; assay: NMDA-induced neurotoxicity in primary cortical glia-neuron (GN) mix culture, MAP2 and TUNEL staining; format: cell-based; settings: 9 DIV, 30 min pretreatment with 0.1 μM 14,15-EET or 10 μM AUDA, 24 h
Protocol: Primary cortical NE cultures were prepared from embryonic day 17 SD fetal rats. The cultures were maintained in Neurobasal™ medium, and 9-10 days in vitro (DIV) culture was used for the study. Primary astrocyte cultures were prepared from SD rat pups at P1-2, with the purified astrocytes grown in 50% DMEM/50% Neurobasal™ medium containing heparin-binding EGF-like growth factor (HBEGF) or GNCM wherein GCM and NM are at a ratio of 1:1. Primary glia-neuron mix cultures were prepared from P0 rat brains. The harvested cerebral cortex was mechanically triturated in glia culture medium (GCM), comprising DMEM supplemented with 10% FBS. The mixture was stationed at room temperature for 1 minute, and the supernatant centrifuged at 1,500 rpm to obtain the cell pellet. The pellet was resuspended in GCM and seeded onto 24-well plates coated with poly-L-lysine (0.1 mg/mL). The culture medium was replaced with an embodiment of the GNCM medium of the present invention comprising a 1:1 mixture of GCM and B-27-containing Neurobasal™ 1 hour after the initial seeding.
The day of cell plating was considered as 0 DIV, and 9-10 DIV cultures were used for the experiments.
Primary rat cortical GN mix and NE cultures at 9 days in vitro were pretreated with 0.1 μM 14,15-EET, 10 μM 12-(3-adamantan-1-yl-ureido)-dodecanoic acid (AUDA), or vehicle for 30 min, and then treated with or without 14,15-epoxyeicosa-5(Z)-enoic acid (14,15-EEZE) (EZ) or N-methyl-D-aspartate (NMDA). Representative immunofluorescent images of MAP2 and TUNEL staining in GN mix and NE cultures were treated as indicated for 24 h. Total cell nuclei were counterstained with DAPI. Scale bar=50 μm.
Neuron dendrites were marked with MAP2 and colored in red, cell nuclei were marked with DAPI and colored in blue, while cell death was marked with TUNEL and colored in green.
Both MAP2^+ neurite density and TUNEL^+ cells were normalized by the total DAPI number in each quantified microscopic field.

[3] = tested on: cells extracted from rat cerebral cortex; assay: LPS neuroinflammation and cell type population in glia cell and neuron co-culture in the media of Table 4; format: cell-based
Protocol: To further examine the effects of various embodiments of mGNCM with different ratios of mNM and GCM of the present invention on cell type population and morphology of rat glia cells and neurons co-culture, six cell culture media were prepared to the specifications of Table 4.
On postnatal day 0 (P0), cells extracted from rat cerebral cortex were inoculated in each of the cell culture media of Table 4. Following 14 days of in vitro cultivation, immunostaining was performed on the control groups (CTL) to aid in the observation of cell type ratios, specifically of neurons, astrocytes, and microglia, and oligodendrocytes as well as cell morphology. Cultures of the LPS groups (LPS) were subjected to inflammatory stimulation via 1 μg/mL LPS at 13 days in vitro. After another 24 hours, the LPS groups were subjected to immunostaining as well, for the observation of cell morphology and cell count.

mouse hippocampi = assay: intraperitoneal LPS injection, astrocyte and microglia plasticity in hippocampi; format: in vivo; settings: LPS i.p. for 7 days at 3 mg/kg body weight per injection, vs saline
Protocol: To validate the results of in vitro LPS treatment of the present invention, LPS was injected intraperitoneally in mice for 7 days at 3 mg/kg body weight per injection and the astrocyte and microglia plasticity in mouse hippocampi examined. […] Astrocytes were marked with GFAP and colored in green, while cell nuclei were marked with DAPI and colored in blue.
Microglia were marked with Iba-1 and colored in green, while cell nuclei were marked with DAPI and colored in blue.

[4] = tested on: rat cerebral cortex cells; assay: LPS neuroinflammation in cerebral cortex cells cultured in the media of Table 3; format: cell-based; settings: for percentages of MAP2 positive cells in the total population (neurons): 1 μg/mL LPS for 24 hours on day 13
Source text: The efficacies of simulating in vivo cell morphology, cell interactions and responses to stimuli in vitro using mGNCM of different ratios of modified neuron medium (mNM) and glia culture medium (GCM) were compared, 1:1:, 2:1 and GCM only groups, and the GCM only group comprising only GCM and 10% FBS as shown in Table 3 above.
The effects of neuroinflammation simulation of rat cerebral cortex cells grown in vitro using the three embodiments of mGNCM of Table 3 were examined. Cells obtained from rat cerebral cortex were cultured in vitro for 13 days using the three culture media above, then treated with 1 μg/mL of lipopolysaccharides (LPS) for 24 hours on day 13 to trigger inflammation. Following LPS treatment, immunostaining was performed to observe cell population, morphology, and response to inflammatory stimulus.
The immunostaining images of FIG. 5 show neuronal population and response to LPS stimulation, wherein CTL represents control groups (not subjected to LPS treatment) and LPS represents groups treated with LPS to induce neuroinflammation. The images show astrocyte cytoskeleton marked with GFAP and colored in red, neuron dendrites marked with MAP2 and colored in green, as well as cell nuclei marked with DAPI and colored in blue. FIGS. 5A1-5A3 and 5B1-5B3 show cells cultured with GCM only, FIGS. 5C1-5C3 and 5D1-5D3 show cells cultured with 1:1 mNM and GCM, while FIGS. 5E1-5E3 and 5F1-5F3 show cells cultured with 2:1 mNM and GCM. The GCM only group comprises fewer neurons, and the cells are smaller and unhealthier in both CTL and LPS treatment groups.

[5] = biological target: T1, aryl hydrocarbon receptor (AHR) (Mus musculus, UniProt P30561); settings: WT mice, cited from earlier work
T1 construct: the brains of adult mice were used to study the effect of aryl hydrocarbon receptor modulation; from tissue; host or cells: adult mouse brain, peri-infarct cortex (in vivo)
T1 sequence (P30561 10-848): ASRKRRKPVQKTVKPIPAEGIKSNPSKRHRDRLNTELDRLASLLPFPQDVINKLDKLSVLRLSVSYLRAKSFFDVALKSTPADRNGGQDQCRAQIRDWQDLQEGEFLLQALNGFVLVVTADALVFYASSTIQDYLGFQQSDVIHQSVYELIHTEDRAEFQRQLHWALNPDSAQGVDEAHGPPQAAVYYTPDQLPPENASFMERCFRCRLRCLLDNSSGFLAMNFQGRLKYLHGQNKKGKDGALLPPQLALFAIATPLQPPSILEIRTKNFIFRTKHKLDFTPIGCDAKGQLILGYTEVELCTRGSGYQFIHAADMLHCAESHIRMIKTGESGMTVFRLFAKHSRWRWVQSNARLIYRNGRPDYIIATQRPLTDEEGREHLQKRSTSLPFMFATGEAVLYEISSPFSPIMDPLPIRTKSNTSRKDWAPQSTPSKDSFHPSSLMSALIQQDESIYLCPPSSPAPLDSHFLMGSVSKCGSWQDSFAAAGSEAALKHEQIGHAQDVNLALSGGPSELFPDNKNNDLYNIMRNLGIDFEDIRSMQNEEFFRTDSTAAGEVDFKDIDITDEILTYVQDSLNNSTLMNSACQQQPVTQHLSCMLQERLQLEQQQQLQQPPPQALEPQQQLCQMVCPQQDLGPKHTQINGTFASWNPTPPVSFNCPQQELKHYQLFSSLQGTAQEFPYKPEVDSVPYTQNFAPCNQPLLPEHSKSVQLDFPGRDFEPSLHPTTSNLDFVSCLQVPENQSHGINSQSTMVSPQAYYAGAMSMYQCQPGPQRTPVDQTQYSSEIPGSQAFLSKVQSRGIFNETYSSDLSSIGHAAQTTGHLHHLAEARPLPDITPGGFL

Oligodendrocytes = assay: excitotoxic NMDA treatment of oligodendrocytes in GN mix culture (RIP/NF200 staining); format: cell-based, mouse; settings: NM:GCM 1:1 medium, 5 μM NMDA at 14 DIV for 24 hour
Protocol: Oligodendrocytes obtained from mouse primary neonatal brain cells cultivated using the GN culture compositions provided in table 4 were treated with 5 μM NMDA at 14 DIV for 24 hour.
The cell nuclei are characterized by immunostaining shown in blue. […] Moreover, the response of oligodendrocytes to excitotoxic NMDA treatment can further mimic excitotoxicity-induced demyelination.

[6] = DGh and CA3, KA i.c.v. vs saline, 24 h
[7] = all groups except for the GCM only group, 1 μg/mL LPS, 24 hours
[8] = TMF 5 mg/kg/day intraperitoneally, 48 h after MCAO
[9] = DGh and CA3, unilateral i.c.v. injection, 24 h after injection

With `C=C(C)[C@H]1CN[C@H](C(=O)O)[C@H]1CC(=O)O` [KA, kainic acid] the “MAP2+ dendrite area” value [1, 6] was “significantly reduced”, the “NeuN+ neurons” value [1, 6] was “significantly reduced” and the GLT-1 immunoreactivity ([1]; SP and SL layers of CA3, KA treatment group) was “depleted”.
With `CCCCCC1OC1CC=CCC=CCC=CCCCC(=O)O` (stereo not shown) [14,15-EET, 14,15-epoxyeicosatrienoic acid] the “NMDA-induced MAP2+ neurite reduction” value [2] was “significantly attenuated” and the “NMDA-induced cell death (TUNEL+ cells)” value [2] was “significantly attenuated”.
For lipopolysaccharides [LPS], the “Iba1 positive area per cell, control vs LPS groups” value ([3]; 1:1, 2:1, and 4:1 groups, 1 μg/mL LPS, 24 hours) was “significant differences”, the “percentage of neurons in total cells (MAP2-circled cells in total DAPI)” value ([3]; 2:1 mGNCM group, 1 μg/mL LPS, 24 hours) was “significant neuronal loss” and the “microglia morphology (Iba1)” value [3, 7] was “induces microglial hypertrophy (microgliosis)”. The “percentage of neurons in total cells (MAP2-circled cells in total DAPI)” value [3, 7] was “reduced”, the “oligodendrocyte (OL) cell density” value ([3]; different groups of GN mix cultures, 1 μg/ml LPS) was “does not affect” and the “percentage of astrocytes in total cells (GFAP-circled cells in total DAPI)” value ([3]; groups of Table 4, 1 μg/mL LPS, 24 hours) was “does not cause significant proliferation or death of astrocytes”. For the same compound, the oligodendrocyte process shrinkage ([3]; mNM:GCM 0.5:1 and 1:1 media, 1 μg/ml LPS) was “can be observed”, the “percentage of microglia in total cells (Iba1 positive cells in total DAPI)” value ([3]; mNM:GCM 1:1 medium only, 1 μg/mL LPS, 24 hours) was “induces significant microglia proliferation” and the “microglia number (Iba1 images)” value ([3]; mNM:GCM 2:1 co-culture system, 1 μg/mL LPS, 24 hours) was “induces an increase of microglia”. The “astrocyte morphology (GFAP)” value ([3]; media of Table 4, 1 μg/mL LPS at 13 DIV, 24 hours) was “induces astrocyte hypertrophy and process arborization”, the “astrocyte plasticity (GFAP) in hippocampal CA1 and CA3” value (mouse hippocampi) was “induced astrocyte hypertrophy and proliferation” and the “microglia plasticity (Iba-1) in hippocampal CA1” value (mouse hippocampi) was “induced microglial hypertrophy and proliferation”. For the same compound, the “astrocyte hypertrophy (GFAP)” value ([4]; 1:1 group and 2:1 group, 1 μg/mL LPS for 24 hours) was “can be found”, the “microglia cell density and cell size (Iba1)” value ([4]; 1:1 group, 1 μg/mL LPS for 24 hours) was “marked increase” and the “percentages of MAP2 positive cells in the total population (neurons)” value ([4]; 1:1 group) was “induces neuronal loss”. For the same compound, the “percentages of MAP2 positive cells in the total population (neurons)” value ([4]; GCM only and 2:1 groups) was “not affected in this way” and the “astrocyte hypertrophy (GFAP)” value ([4]; GCM only group, 1 μg/mL LPS for 24 hours) was “not observed”.
In the case of `COc1ccc(-c2cc(=O)c3cc(OC)ccc3o2)c(OC)c1` [TMF, 6,2′,4′-trimethoxyflavone], the “GFAP-positive astrogliosis at the peri-infarct cortex after MCAO” value [5, 8] is listed as “markedly decreased”, the “Iba1-positive microgliosis at the peri-infarct cortex after MCAO” value [5, 8] is listed as “markedly decreased” and the “AHR immunoreactivity colocalized within Iba1-positive microglia and GFAP-positive astrocytes after MCAO” value ([5]; TMF-treated vs vehicle-treated, peri-infarct cortex) is listed as “markedly decreased”.
With `O=C(O)CCCCCCCCCCCNC(=O)NC12CC3CC(CC(C3)C1)C2` [AUDA, 12-(3-adamantan-1-yl-ureido)-dodecanoic acid] the “NMDA-induced MAP2+ neurite reduction” value [2] was “significantly attenuated”, the “NMDA-induced cell death (TUNEL+ cells)” value [2] was “significantly attenuated” and the “KA-induced MAP2+ dendrite damage” value [1, 9] was “significantly attenuated”. For the same compound, the “KA-induced NeuN+ cell loss” value [1, 9] was “significantly attenuated” and the “KA-induced depletion of GLT-1 immunoreactivity” value ([1]; SP and SL layers of CA3, AUDA pretreatment) was “attenuated”.
In the case of `CN[C@H](CC(=O)O)C(=O)O` [NMDA, N-methyl-D-aspartate], the “oligodendrocyte process extension and arborization” value (Oligodendrocytes) is reported as “disrupts”.
